Measured values taken from BigSolDB 2.1.

O=C(O)/C=C/c1ccc(Cl)cc1
solubility (mole fraction)
Conditions | 283.15 K | 288.15 K | 293.15 K | 298.15 K | 303.15 K | 308.15 K | 313.15 K | 318.15 K | 323.15 K
in 1,4-dioxane | – | 0.00826 | 0.0094 | 0.0106 | 0.0118 | 0.0132 | 0.0148 | 0.0158 | 0.018
in acetone | 0.00214 | 0.00248 | 0.00303 | 0.00334 | 0.00388 | 0.00434 | 0.00509 | 0.00556 | 0.00654
in acetonitrile | 0.000318 | 0.000351 | 0.000365 | 0.000425 | 0.000468 | 0.000515 | 0.000622 | 0.000803 | 0.00105
in ethanol | 0.00136 | 0.00166 | 0.00184 | 0.00207 | 0.00238 | 0.00265 | 0.00317 | 0.00363 | 0.004
in ethyl acetate | 0.00159 | 0.00166 | 0.0019 | 0.00214 | 0.00242 | 0.00266 | 0.00315 | 0.00379 | 0.00442
in isobutanol | 0.00102 | 0.00125 | 0.00154 | 0.00177 | 0.00195 | 0.00223 | 0.00244 | 0.00282 | 0.00325
in isopropanol | 0.00118 | 0.00141 | 0.00165 | 0.0019 | 0.00215 | 0.00255 | 0.0029 | 0.00359 | 0.00454
in methanol | 0.00112 | 0.00123 | 0.00136 | 0.00155 | 0.00172 | 0.00187 | 0.00206 | 0.00233 | 0.00251
in methyl acetate | 0.00142 | 0.00173 | 0.00201 | 0.00231 | 0.00262 | 0.00298 | 0.0033 | 0.00355 | 0.0038
in n-butanol | 0.00123 | 0.00154 | 0.00184 | 0.00219 | 0.00249 | 0.00283 | 0.00314 | 0.0037 | 0.00427
in n-propanol | 0.0012 | 0.00146 | 0.00177 | 0.002 | 0.00234 | 0.00266 | 0.00308 | 0.00361 | 0.00432
in water | 5.3e-06 | 6.88e-06 | 8.16e-06 | 9.38e-06 | 1.16e-05 | 1.26e-05 | 1.51e-05 | 1.74e-05 | 2.06e-05
